Laboratory results published in patent US4312883A, “Furocoumarin for the photochemotherapy of psoriasis and related skin diseases” (Consiglio Nazionale delle Ricerche, priority 1979, dated 1982).

Assays:
DNA [1] = experiment: Dark complex formation (intercalation) with DNA in the ground state, binding parameters; set-up: K (association constants) of the complexes with DNA: unit not given here; conditions: for K (association constants) of the complexes with DNA / 1/n (frequency of binding sites): in vitro, ground state; for K (association constants) of the complexes with DNA: McGhee and Von Hippel method; for 1/n (frequency of binding sites): molecules bound per nucleotide; for 1/n (frequency of binding sites), relative / K (association constants), relative: relative (ang = 100)
From the text: Dark complex formation: It is known from F. Dall'Acqua, et al. Chem.-Biol. Interactions 21,103 (1978) that the intercalated complex formed by furocoumarins with DNA strongly affects the successive photoaddition increasing the rate of photobinding. […] These parameters have been determined according to the method of McChee and Von Hippel, J.Mol.Biol, 86, 469 (1974).
(a) Determined according to Mc Ghee and Von Hippel, J. Mol. Biol.,

DNA [2] = experiment: Photobinding to DNA, rate constants of the photoreactions; assay type: biochemical; conditions: for Rate constants of the photoreactions with DNA: in vitro, UV-A irradiated; for Rate constants of the photoreactions with DNA, relative: relative (ang = 100)
From the text: (b) Determined according to F. Dall'Acqua, S. Marciani, F. Zambon and G.
Rodighiero, Photochem. Photobiol., 29,489(1979).
Photobinding capacity to DNA: The introduction of one or two methyl groups in the molecule of angelicin leads to a strong increase of the photobinding to DNA; see Table II. […] Photobiol., 29, 489 (1979).

DNA [3] = experiment: Capacity to form inter-strand cross-linkages in DNA; assay type: biochemical; conditions: (psr = 100)
Protocol: All these compounds were not suitable to photoinduce in DNA inter-strand cross-linkages. […] These tests were carried out according to the method of F. Bordin et al., Photochem. Photobiol., 29,1063 (1979).

[4] = tested on: DNA synthesis in Ehrlich ascites tumor cells; experiment: Inhibition of DNA synthesis (and DNA and RNA synthesis) on irradiation at 365 nm; assay type: cell-based; conditions: for inhibition of DNA synthesis, relative: relative (ang = 100)
From the text: (§1) Photobiological activity: A significant test for assessing photobiological activity of alkylangelicins is the study of their capacity to inhibit DNA and RNA synthesis in Ehrlich ascites tumor cells. In Table III the capacity of inhibition is expressed as ID50, that is the irradiation does, in terms of quanta at 365 nm, necessary to inhibit in these cells the 50% of the DNA and RNA synthesis in the presence of a constant amount of alkylangelicin. […] Moreover, in general it can be observed that in this simple biological system a close correlation exists between photobiological activity and the capacity to induce photochemical lesions in DNA, that is photoreactivity.

[5] = tested on: RNA synthesis in Ehrlich ascites tumor cells; experiment: Inhibition of RNA synthesis on irradiation at 365 nm; assay type: cell-based; conditions: relative (ang = 100)
From the text: as §1

skin = experiment: Relative skin phototoxicity; conditions: (psr = 100)
epidermal DNA synthesis = experiment: Inhibition of epidermal DNA synthesis in the mouse in vivo after topical application and UV-A irradiation; conditions: light or radiation study, 0.01% methanol solutions, UV-A 9 J/cm^2, read-out: Percent inhibition ± standard error of epidermal DNA synthesis
Protocol: DNA samples were dissolved in water and their specific radioactivity determined.
Each drug substance was studied using at least six mice.

Row | Molecule | increase of K (affinity towards DNA) (DNA [1]; on introduction of a cationic moiety in addition to the two methyl groups) | K (association constants) of the complexes with DNA (DNA [1]) | 1/n (frequency of binding sites) (DNA [1]) | 1/n (frequency of binding sites), relative (DNA [1]) | K (association constants), relative (DNA [1]) | Rate constants of the photoreactions with DNA (DNA [2]) | Rate constants of the photoreactions with DNA, relative (DNA [2]) | capacity to form interstrand cross-linkages (DNA [3]) | inhibition of DNA synthesis, relative [4] | inhibition of RNA synthesis, relative [5] | Relative skin phototoxicity (skin) | photobinding capacity to DNA (in words) (DNA [2]; versus angelicin) | capacity to inhibit the DNA and RNA synthesis (in words) ([4]; Ehrlich ascites tumor cells, versus angelicin) | inhibition in vivo at 0.01 % (epidermal DNA synthesis)
1 | 4'-aminomethoxymethyl-4,5'-dimethylangelicin | more than 20 times |  |  |  |  |  |  |  |  |  |  |  |  | 
2 | COCc1c(C)oc2ccc3c(C)cc(=O)oc3c12 [4'-methoxymethyl-4,5'-dimethylangelicin, 4,5'-dimethyl-4'-methoxymethylangelicin] |  | 700 | 0.050 | 80 | 125 | 1.6 K × 10^-2 × min^-1 | 145 | 0 | 110 | 169 | 0 |  |  | 
3 | Cc1cc2c(cc(C)c3c(C)cc(=O)oc32)o1 [4,5,5'-trimethylangelicin] |  |  |  |  |  |  |  |  |  |  |  | close to that of angelicin | lower than that of angelicin | 
4 | Cc1cc(=O)oc2c1ccc1occc12 [4-methylangelicin] |  | 1400 | 0.076 | 120 | 250 | 1.61 K × 10^-2 × min^-1 | 146 | 0 | 104 | 129 | 0 |  |  | 68.5 ± 19.5%
5 | Cc1cc2c(ccc3ccc(=O)oc32)o1 [5'-methylangelicin, 5'methylangelicin] |  | 1200 | 0.073 | 116 | 214 | 2.11 K × 10^-2 × min^-1 | 191 | 0 | 150 | 134 | 0 |  |  | 
6 | Cc1cc2c(cc(C)c3ccc(=O)oc32)o1 [5,5'-dimethylangelicin] |  | 1750 | 0.085 | 135 | 312 | 2.73 K × 10^-2 × min^-1 | 248 | 0 | 180 | 355 | 0 |  |  | 48.3 ± 2.9%
